Experimental data published in US20230365546A1, “5-SUBSTITUTED INDOLE 3-AMIDE DERIVATIVES, PREPARATION METHOD AND USE THEREOF” (ORIGIANT PHARMACEUTICAL CO., LTD, priority 2020, published 2023).

Experiments:
Pim-3(h) = Pim-3(h) (Homo sapiens (Human), UniProt Q86V86); experiment: Kinase Profiler 10 μM panel
Experimental: (§1) In vitro kinase assays were conducted using Kinase Profiler services provided by Eurofins. The experimental method was as follows: the small molecule compound to be tested (0.001-10 μM), the protein kinase to be tested were incubated with a buffer containing substrate, 10 mM magnesium acetate, and [γ-^33P-ATP], the reaction was started by adding Mg\TPmix, after incubation for a period of time at room temperature, a 3% phosphate solution was added to the buffer to stop the reaction. Subsequently, 10 μL of the reaction mixture was quantitatively pipetted onto P30 filter paper, which was washed three times with 75 mM phosphate solution and then once with methanol. The P30 filter paper was air-dried and scintillation fluid was added for scintillation counting.

SGK2(h) = SGK2(h) (Homo sapiens (Human), UniProt Q9HBY8); experiment: Kinase Profiler 10 μM panel
Experimental: as §1

SBK1(h) = SBK1(h) (Homo sapiens (Human), UniProt Q52WX2); experiment: Kinase Profiler 10 μM panel
Experimental: as §1

Fyn(h) = Fyn(h) (Homo sapiens (Human), UniProt P06241); experiment: Kinase Profiler 10 μM panel
Experimental: as §1

CK1(y) = experiment: Kinase Profiler 10 μM panel
Experimental: as §1

DDR1(h) = DDR1(h) (Homo sapiens (Human), UniProt Q08345); experiment: Kinase Profiler 10 μM panel
Experimental: as §1

CK2α2(h) = CK2α2(h) (Homo sapiens (Human), UniProt P19784); experiment: Kinase Profiler 10 μM panel
Experimental: as §1

PKCδ(h) = PKCδ(h) (Homo sapiens (Human), UniProt Q05655); experiment: Kinase Profiler 10 μM panel
Experimental: as §1

JAK3(h) = JAK3(h) (Homo sapiens (Human), UniProt P52333); experiment: Kinase Profiler 10 μM panel
Experimental: as §1

SRPK1(h) = SRPK1(h) (Homo sapiens (Human), UniProt Q96SB4); experiment: Kinase Profiler 10 μM panel
Experimental: as §1

NEK9(h) = NEK9(h) (Homo sapiens (Human), UniProt Q8TD19); experiment: Kinase Profiler 10 μM panel
Experimental: as §1

Abl(T315I)(h) = Abl(T315I)(h) (Homo sapiens (Human), UniProt P00519, T315I); experiment: Kinase Profiler 10 μM panel
Experimental: as §1

ALK4(h) = ALK4(h) (Homo sapiens (Human), UniProt P36896); experiment: Kinase Profiler 10 μM panel
Experimental: as §1

cKit(V654A)(h) = cKit(V654A)(h) (Homo sapiens (Human), UniProt P10721, V654A); experiment: Kinase Profiler 10 μM panel
Experimental: as §1

MAP4K5(h) = MAP4K5(h) (Homo sapiens (Human), UniProt Q9Y4K4); experiment: Kinase Profiler 10 μM panel
Experimental: as §1

[1] = system: 422 kinases (including mutants); experiment: Kinase selectivity profile over the Eurofins panel; format: biochemical; settings: 10 μM, Tables 3 and 4, FIGS. 1 and 2
Text: The selectivity profiles for Compounds 34 and 94 were plotted according to the data in Table 3 and Table 4. Wherein the red circular spot indicated the kinase were inhibited obviously, and the larger the radius of the red spot, the higher the inhibition against the kinase, and vice versa.

Flt3(D835Y)(h) = Flt3(D835Y)(h) (Homo sapiens (Human), UniProt P36888, D835Y); experiment: Kinase Profiler 10 μM panel
Experimental: as §1

PRKG2(h) = PRKG2(h) (Homo sapiens (Human), UniProt Q13237); experiment: Kinase Profiler 10 μM panel
Experimental: as §1

DCAMKL3(h) = DCAMKL3(h) (Homo sapiens (Human), UniProt Q9C098); experiment: Kinase Profiler 10 μM panel
SLK(h) = SLK(h) (Homo sapiens (Human), UniProt Q9H2G2); experiment: Kinase Profiler 10 μM panel
Experimental: as §1

WNK1(h) = WNK1(h) (Homo sapiens (Human), UniProt Q9H4A3); experiment: Kinase Profiler 10 μM panel
Experimental: as §1

CaMKK1(h) = CaMKK1(h) (Homo sapiens (Human), UniProt Q8N5S9); experiment: Kinase Profiler 10 μM panel
Experimental: as §1

EGFR(T790M,L858R)(h) = EGFR(T790M,L858R)(h) (Homo sapiens (Human), UniProt P00533, L858R/T790M); experiment: Kinase Profiler 10 μM panel
Experimental: as §1

MYLK2(h) = MYLK2(h) (Homo sapiens (Human), UniProt Q9H1R3); experiment: Kinase Profiler 10 μM panel
Experimental: as §1

Tie2(R849W)(h) = Tie2(R849W)(h) (Homo sapiens (Human), UniProt Q02763, R849W); experiment: Kinase Profiler 10 μM panel
Experimental: as §1

CDKL2(h) = CDKL2(h) (Homo sapiens (Human), UniProt Q92772); experiment: Kinase Profiler 10 μM panel
Experimental: as §1

Flt3(h) = Flt3(h) (Homo sapiens (Human), UniProt P36888); experiment: Kinase Profiler 10 μM panel
Experimental: as §1

CDK5/p35(h) = CDK5/p35(h) (Homo sapiens (Human), UniProt Q00535); experiment: Kinase Profiler 10 μM panel
Experimental: as §1

EGFR(T790M)(h) = EGFR(T790M)(h) (Homo sapiens (Human), UniProt P00533, T790M); experiment: Kinase Profiler 10 μM panel
Experimental: as §1

TTBK2(h) = TTBK2(h) (Homo sapiens (Human), UniProt Q6IQ55); experiment: Kinase Profiler 10 μM panel
Experimental: as §1

[2] = target: PI3 Kinase (p110b/p85a)(h) (Homo sapiens (Human), UniProt P42338); experiment: Kinase Profiler 10 μM panel
Experimental: as §1

Met(h) = Met(h) (Homo sapiens (Human), UniProt P08581); experiment: Kinase Profiler 10 μM panel
Experimental: as §1

Sequence of cKit(V654A)(h) (P10721 26-976 V654A): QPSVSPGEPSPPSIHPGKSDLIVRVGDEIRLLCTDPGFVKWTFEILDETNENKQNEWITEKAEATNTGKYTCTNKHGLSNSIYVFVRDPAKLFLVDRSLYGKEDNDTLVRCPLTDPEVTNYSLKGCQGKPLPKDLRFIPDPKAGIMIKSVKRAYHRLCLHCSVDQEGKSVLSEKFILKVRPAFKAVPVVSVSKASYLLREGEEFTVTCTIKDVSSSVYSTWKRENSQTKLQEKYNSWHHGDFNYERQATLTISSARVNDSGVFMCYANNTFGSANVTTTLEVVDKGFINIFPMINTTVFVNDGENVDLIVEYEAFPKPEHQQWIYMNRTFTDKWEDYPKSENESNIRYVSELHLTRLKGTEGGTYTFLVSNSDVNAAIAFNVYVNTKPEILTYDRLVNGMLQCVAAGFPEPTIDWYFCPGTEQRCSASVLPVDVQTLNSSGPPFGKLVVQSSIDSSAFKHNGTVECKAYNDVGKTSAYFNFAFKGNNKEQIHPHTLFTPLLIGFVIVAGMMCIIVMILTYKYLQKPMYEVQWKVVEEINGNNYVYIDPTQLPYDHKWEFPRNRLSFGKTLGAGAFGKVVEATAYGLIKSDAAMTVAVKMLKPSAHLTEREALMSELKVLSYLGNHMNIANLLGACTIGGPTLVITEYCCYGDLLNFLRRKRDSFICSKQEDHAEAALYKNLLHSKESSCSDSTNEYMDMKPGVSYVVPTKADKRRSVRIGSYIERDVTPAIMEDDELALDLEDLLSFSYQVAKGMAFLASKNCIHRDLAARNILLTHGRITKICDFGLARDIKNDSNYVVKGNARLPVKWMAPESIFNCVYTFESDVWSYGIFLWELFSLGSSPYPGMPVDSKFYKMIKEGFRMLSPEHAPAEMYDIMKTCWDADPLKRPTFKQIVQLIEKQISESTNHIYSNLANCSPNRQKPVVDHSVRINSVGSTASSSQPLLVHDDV
Sequence of Fyn(h) (P06241 whole entry): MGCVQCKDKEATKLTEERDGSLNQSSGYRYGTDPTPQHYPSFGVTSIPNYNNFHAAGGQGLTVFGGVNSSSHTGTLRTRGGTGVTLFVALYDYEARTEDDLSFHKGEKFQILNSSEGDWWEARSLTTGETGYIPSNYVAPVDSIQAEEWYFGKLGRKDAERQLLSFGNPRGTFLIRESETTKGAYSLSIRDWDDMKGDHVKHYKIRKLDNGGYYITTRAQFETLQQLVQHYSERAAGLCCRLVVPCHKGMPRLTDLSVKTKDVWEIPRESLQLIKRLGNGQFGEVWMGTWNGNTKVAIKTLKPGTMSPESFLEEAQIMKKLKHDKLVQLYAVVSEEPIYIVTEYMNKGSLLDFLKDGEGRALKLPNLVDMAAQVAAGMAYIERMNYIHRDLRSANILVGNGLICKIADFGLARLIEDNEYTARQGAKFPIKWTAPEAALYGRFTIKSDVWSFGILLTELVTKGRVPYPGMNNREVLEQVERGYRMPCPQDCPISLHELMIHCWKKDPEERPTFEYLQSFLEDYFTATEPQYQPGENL
Sequence of TTBK2(h) (Q6IQ55 whole entry): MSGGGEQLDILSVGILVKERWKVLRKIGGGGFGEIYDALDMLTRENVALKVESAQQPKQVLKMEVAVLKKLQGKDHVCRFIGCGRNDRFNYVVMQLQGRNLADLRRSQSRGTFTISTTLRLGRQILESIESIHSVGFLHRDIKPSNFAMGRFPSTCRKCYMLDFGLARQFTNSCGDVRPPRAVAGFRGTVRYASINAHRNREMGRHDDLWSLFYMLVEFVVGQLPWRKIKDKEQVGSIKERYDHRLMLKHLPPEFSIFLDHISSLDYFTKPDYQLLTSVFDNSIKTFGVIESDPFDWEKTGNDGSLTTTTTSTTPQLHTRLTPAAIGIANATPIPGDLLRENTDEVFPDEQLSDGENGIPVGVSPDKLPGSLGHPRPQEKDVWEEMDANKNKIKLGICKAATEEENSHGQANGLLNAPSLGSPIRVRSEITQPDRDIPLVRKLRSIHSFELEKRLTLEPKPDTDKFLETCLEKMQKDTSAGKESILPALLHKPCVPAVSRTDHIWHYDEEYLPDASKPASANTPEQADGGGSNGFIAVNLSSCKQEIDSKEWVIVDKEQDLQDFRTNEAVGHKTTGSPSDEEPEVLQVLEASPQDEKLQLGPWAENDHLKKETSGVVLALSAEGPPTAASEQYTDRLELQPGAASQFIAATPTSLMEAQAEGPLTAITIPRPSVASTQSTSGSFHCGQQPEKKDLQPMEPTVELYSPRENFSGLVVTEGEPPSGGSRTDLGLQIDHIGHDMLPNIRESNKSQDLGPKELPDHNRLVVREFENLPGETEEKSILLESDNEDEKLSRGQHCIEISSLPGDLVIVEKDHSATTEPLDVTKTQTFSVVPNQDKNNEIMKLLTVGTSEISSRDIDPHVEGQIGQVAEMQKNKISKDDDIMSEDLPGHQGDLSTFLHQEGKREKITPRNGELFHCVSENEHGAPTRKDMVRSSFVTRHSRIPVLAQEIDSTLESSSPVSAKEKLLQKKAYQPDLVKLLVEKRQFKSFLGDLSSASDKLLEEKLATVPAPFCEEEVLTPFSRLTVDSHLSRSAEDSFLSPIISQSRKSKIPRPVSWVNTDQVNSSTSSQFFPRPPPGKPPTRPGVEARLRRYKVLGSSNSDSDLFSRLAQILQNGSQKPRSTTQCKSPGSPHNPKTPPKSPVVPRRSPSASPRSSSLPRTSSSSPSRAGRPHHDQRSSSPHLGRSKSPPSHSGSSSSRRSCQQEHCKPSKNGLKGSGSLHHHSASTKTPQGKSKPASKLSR
Sequence of PI3 Kinase (p110b/p85a)(h) (P42338 whole entry): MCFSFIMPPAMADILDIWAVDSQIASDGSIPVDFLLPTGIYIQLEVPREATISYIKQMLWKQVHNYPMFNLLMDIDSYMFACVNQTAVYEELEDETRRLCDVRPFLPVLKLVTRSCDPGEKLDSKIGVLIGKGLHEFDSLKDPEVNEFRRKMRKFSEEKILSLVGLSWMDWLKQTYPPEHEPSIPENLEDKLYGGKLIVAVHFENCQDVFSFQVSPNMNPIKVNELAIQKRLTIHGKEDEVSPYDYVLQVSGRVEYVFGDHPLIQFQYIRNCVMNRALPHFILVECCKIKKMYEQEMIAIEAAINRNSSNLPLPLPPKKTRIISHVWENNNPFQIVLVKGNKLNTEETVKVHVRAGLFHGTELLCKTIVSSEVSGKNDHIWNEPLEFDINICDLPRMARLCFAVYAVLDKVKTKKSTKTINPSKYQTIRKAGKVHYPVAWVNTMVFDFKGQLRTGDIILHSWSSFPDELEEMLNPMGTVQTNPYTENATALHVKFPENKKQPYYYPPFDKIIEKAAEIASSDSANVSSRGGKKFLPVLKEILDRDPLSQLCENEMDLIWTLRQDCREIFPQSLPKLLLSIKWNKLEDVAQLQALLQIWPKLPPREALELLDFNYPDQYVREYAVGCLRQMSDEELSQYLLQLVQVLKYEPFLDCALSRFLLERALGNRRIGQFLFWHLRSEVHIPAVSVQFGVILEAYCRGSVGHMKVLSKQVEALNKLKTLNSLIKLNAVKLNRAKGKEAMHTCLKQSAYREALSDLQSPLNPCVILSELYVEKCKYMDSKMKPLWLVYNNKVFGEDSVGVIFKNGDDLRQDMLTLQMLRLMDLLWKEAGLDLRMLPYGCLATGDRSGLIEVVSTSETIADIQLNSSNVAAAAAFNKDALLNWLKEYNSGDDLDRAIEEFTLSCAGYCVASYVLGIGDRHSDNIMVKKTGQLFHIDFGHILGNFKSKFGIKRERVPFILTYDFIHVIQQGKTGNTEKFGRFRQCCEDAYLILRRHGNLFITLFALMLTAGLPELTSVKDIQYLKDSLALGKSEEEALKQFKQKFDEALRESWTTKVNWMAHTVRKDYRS
Sequence of PI3 Kinase (p110b/p85a)(h) (P27986 whole entry partner): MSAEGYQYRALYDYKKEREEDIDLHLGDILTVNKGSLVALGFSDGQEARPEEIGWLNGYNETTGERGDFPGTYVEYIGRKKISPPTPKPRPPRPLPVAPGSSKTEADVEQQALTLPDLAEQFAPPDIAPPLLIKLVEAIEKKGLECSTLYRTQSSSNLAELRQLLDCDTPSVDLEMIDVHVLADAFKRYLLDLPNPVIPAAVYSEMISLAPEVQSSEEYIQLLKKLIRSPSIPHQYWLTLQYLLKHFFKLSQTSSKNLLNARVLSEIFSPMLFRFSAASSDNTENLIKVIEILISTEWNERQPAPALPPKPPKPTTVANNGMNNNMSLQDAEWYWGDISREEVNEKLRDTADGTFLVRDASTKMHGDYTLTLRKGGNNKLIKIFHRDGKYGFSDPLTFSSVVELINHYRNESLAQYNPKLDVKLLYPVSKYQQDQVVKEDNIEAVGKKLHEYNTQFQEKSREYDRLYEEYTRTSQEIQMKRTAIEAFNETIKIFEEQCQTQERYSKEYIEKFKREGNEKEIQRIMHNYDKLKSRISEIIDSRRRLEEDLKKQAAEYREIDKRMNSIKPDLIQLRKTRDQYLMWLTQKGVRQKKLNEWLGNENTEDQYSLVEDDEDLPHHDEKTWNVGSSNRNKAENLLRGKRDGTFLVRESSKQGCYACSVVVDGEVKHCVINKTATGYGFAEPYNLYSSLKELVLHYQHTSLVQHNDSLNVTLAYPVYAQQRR
Sequence of CK2α2(h) (P19784 whole entry): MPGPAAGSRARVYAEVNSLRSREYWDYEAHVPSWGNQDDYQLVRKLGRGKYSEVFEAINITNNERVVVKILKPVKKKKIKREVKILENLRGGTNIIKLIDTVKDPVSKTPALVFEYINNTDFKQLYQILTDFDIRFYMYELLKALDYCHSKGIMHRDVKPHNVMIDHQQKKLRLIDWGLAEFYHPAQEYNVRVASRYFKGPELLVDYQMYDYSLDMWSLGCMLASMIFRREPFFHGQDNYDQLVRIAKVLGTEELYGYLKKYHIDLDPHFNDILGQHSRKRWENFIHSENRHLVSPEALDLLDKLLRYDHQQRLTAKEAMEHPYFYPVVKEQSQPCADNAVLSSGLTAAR

## C[C@H](NC(=O)c1c[nH]c2ccc(-c3ccc4nc(NC(=O)C5CC5)sc4c3)cc12)c1cccc(F)c1 [Compound 34, (S)-5-(2-(cyclopropanecarboxamido)benzo[d]thiazol-6-yl)-N-(1-(3-fluorophenyl)ethyl)-1H-indole-3-carboxamide]
Pim-3(h)
  Inhibition ratio: 3%
SGK2(h)
  Inhibition ratio: 2%
SBK1(h)
  Inhibition ratio: −12%
Fyn(h)
  Inhibition ratio: 43%
CK1(y)
  Inhibition ratio: 25%
DDR1(h)
  Inhibition ratio: 51%
CK2α2(h)
  Inhibition ratio: 23%
PKCδ(h)
  Inhibition ratio: 7%
JAK3(h)
  Inhibition ratio: 23%
SRPK1(h)
  Inhibition ratio: 29%
NEK9(h)
  Inhibition ratio: 13%
Abl(T315I)(h)
  Inhibition ratio: 101%
ALK4(h)
  Inhibition ratio: 3%
cKit(V654A)(h)
  Inhibition ratio: −1%
MAP4K5(h)
  Inhibition ratio: 64%
[1]
  Kinase selectivity: good kinase selectivity
Flt3(D835Y)(h)
  Inhibition ratio: 82%
PRKG2(h)
  Inhibition ratio: 3%
DCAMKL3(h)
  Inhibition ratio: 8%
SLK(h)
  Inhibition ratio: 50%
WNK1(h)
  Inhibition ratio: 10%
CaMKK1(h)
  Inhibition ratio: 74%
EGFR(T790M,L858R)(h); EGFR(T790M,L858R)(h)
  Inhibition ratio: 84%
MYLK2(h)
  Inhibition ratio: 55%
Tie2(R849W)(h)
  Inhibition ratio: 86%
CDKL2(h)
  Inhibition ratio: 68%
Flt3(h)
  Inhibition ratio: 79%
CDK5/p35(h)
  Inhibition ratio: −7%
EGFR(T790M)(h)
  Inhibition ratio: 40%
TTBK2(h)
  Inhibition ratio: 8%
[2]
  Inhibition ratio: 16%
Met(h)
  Inhibition ratio: 95%

## C[C@H](NC(=O)c1cn(C)c2ccc(-c3ccn4nc(NC(=O)C5CC5)nc4c3)cc12)c1cccc(F)c1 [Compound 94, (S)-5-(2-(cyclopropanecarboxamido)-[1,2,4]triazolo[1,5-a]pyridin-7-yl)-N-(1-(3-fluorophenyl)ethyl)-1-methyl-1H-indole-3-carboxamide]
Pim-3(h)
  Inhibition ratio/%: 32%
SGK2(h)
  Inhibition ratio/%: −18%
SBK1(h)
  Inhibition ratio/%: −19%
Fyn(h)
  Inhibition ratio/%: −43%
CK1(y)
  Inhibition ratio/%: 30%
DDR1(h)
  Inhibition ratio/%: 21%
CK2α2(h)
  Inhibition ratio/%: 25%
PKCδ(h)
  Inhibition ratio/%: 48%
JAK3(h)
  Inhibition ratio/%: 38%
SRPK1(h)
  Inhibition ratio/%: 50%
NEK9(h)
  Inhibition ratio/%: −10%
Abl(T315I)(h)
  Inhibition ratio/%: 33%
ALK4(h)
  Inhibition ratio/%: −18%
cKit(V654A)(h)
  Inhibition ratio/%: 68%
MAP4K5(h)
  Inhibition ratio/%: 6%
[1]
  Kinase selectivity: good kinase selectivity
Flt3(D835Y)(h)
  Inhibition ratio/%: 12%
PRKG2(h)
  Inhibition ratio/%: −9%
DCAMKL3(h)
  Inhibition ratio/%: 33%
SLK(h)
  Inhibition ratio/%: 15%
WNK1(h)
  Inhibition ratio/%: 45%
CaMKK1(h)
  Inhibition ratio/%: 35%
EGFR(T790M,L858R)(h); EGFR(T790M, L858R)(h)
  Inhibition ratio/%: 52%
MYLK2(h)
  Inhibition ratio/%: −8%
Tie2(R849W)(h)
  Inhibition ratio/%: 16%
CDKL2(h)
  Inhibition ratio/%: 62%
Flt3(h)
  Inhibition ratio/%: 27%
CDK5/p35(h)
  Inhibition ratio/%: −8%
EGFR(T790M)(h)
  Inhibition ratio/%: −10%
TTBK2(h)
  Inhibition ratio/%: −16%
[2]
  Inhibition ratio/%: −7%
Met(h)
  Inhibition ratio/%: −29%
